Experimental data: ChEMBL document CHEMBL4052783, “Effects of novel triple-stage antimalarial ionic liquids on lipid membrane models” (Bioorg Med Chem Lett, 2017)

Legend:
[1] = system: Lipid bilayer; experiment: Binding affinity to DPPC membrane assessed as change in enthalpy for main transition temperature at 1:10 compound/DPPC molar ratio by differential scanning calorimetric method (reference value: 7.22 kJ/mol)
[2] = system: Lipid bilayer; experiment: Binding affinity to DPPG membrane assessed as pre-transition temperature at 1:10 compound/DPPG molar ratio by differential scanning calorimetric method (reference value: 34.5 degreeC)
[3] = system: Lipid bilayer; experiment: Binding affinity to DPPG membrane assessed as change in enthalpy for main transition temperature at 1:10 compound/DPPG molar ratio by differential scanning calorimetric method (reference value: 8.7 KJ/mol)
[4] = system: Lipid bilayer; experiment: Binding affinity to DPPG membrane assessed as main transition temperature at 1:10 compound/DPPG molar ratio by differential scanning calorimetric method (reference value: 40.3 degreeC)
[5] = system: Lipid bilayer; experiment: Binding affinity to DPPC membrane assessed as main transition temperature at 1:10 compound/DPPC molar ratio by differential scanning calorimetric method (reference value: 41.5 degreeC)
[6] = system: Lipid bilayer; experiment: Binding affinity to DPPG membrane assessed as change in enthalpy for pre-transition temperature at 1:10 compound/DPPG molar ratio by differential scanning calorimetric method (reference value: 0.74 KJ/mol)

Compound	deltaH [1] [kcal/mol]	Tm [2] [°C]	deltaH [3] [kcal/mol]	Tm [4] [°C]	Tm [5] [°C]	deltaH [6] [kcal/mol]
COc1cc(NC(C)CCCNC(=O)/C=C/c2ccc(C(C)C)cc2)c2ncccc2c1 (stereo not given)	1.89	32.4	2.22	39	40.1	0.103
COc1cc(NC(C)CCCNC(=O)/C=C/c2ccc(Cl)cc2)c2ncccc2c1 (stereo not given)	2.05	32.7	2.46	39	40.1	0.143
CC(C)c1ccc(/C=C/C(=O)O)cc1.COc1cc(NC(C)CCCN)c2ncccc2c1 (stereo not given)	2.22	–	2.35	38.3	40.2	–
COc1cc(NC(C)CCCN)c2ncccc2c1.O=C(O)/C=C/c1ccc(Cl)cc1 (stereo not given)	2.29	–	2.23	38.1	40.7	–
